Assay [1] addresses T1, ACK1 (Homo sapiens, UniProt Q07912). The assay is described as follows: ACK1 inhibition (ACK1 IC50). The class given is biochemical.
For assay [2], the target named is T1, ACK1. Briefly: DSF = Differential Scanning Fluorimetry, thermal shift. Type of assay: binding. In general terms: Differential scanning fluorimetry follows unfolding on heating by fluorescence.
The test system of another assay is UKE1. Briefly: Cell viability, UKE1. The class given is cell-based.
Another assay concerns MDA-MB-231. The assay is described as follows: Cell viability, MDA-MB-231. Type of assay: cell-based.
Setting [3] is: Homo sapiens, MDA-MB-231, MDA-MB-231.

A value given as a limit tells only on which side of the number the result lay.

T1 sequence (Q07912 whole entry): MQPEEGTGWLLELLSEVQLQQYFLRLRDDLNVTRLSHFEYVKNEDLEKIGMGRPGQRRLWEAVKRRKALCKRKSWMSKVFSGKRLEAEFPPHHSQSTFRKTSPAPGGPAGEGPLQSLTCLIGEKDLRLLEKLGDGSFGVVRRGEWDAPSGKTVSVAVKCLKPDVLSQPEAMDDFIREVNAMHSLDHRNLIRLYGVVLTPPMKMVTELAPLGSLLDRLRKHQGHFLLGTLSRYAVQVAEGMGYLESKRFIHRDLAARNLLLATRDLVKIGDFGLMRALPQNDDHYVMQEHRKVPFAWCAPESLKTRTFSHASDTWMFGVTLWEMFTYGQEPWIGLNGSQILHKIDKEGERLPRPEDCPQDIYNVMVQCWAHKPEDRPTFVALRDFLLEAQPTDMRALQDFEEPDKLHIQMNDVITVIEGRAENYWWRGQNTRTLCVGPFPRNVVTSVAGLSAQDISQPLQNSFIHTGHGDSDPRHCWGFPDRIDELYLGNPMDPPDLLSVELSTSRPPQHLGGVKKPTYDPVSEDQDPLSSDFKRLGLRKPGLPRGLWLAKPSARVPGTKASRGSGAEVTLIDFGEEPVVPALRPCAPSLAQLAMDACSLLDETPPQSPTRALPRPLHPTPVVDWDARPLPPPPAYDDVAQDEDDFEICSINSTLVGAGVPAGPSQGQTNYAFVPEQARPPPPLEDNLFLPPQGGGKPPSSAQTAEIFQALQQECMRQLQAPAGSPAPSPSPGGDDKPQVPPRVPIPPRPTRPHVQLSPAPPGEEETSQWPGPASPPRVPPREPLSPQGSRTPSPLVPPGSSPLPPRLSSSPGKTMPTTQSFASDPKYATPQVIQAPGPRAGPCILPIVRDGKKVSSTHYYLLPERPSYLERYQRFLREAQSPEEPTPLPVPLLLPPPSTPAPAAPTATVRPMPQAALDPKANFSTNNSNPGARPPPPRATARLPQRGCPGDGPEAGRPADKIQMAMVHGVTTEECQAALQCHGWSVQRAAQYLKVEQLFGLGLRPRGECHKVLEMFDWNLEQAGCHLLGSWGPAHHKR

The compound `COc1cc(N2CCN(C)CC2)ccc1Nc1ncc2ccn(CC3CCOCC3)c2n1` gave an IC50 on ACK1 [1] of less than 250 nM.

`COc1cc(Nc2ncc3ccn(-c4cccc(NS(=O)(=O)C(C)C)c4)c3n2)ccc1-c1cnn(C)c1` had an IC50 on ACK1 [1] of less than 250 nM.

In the case of `CC(C)S(=O)(=O)Nc1ccc(-n2ccc3cnc(Nc4ccc(N5CCN(C)CC5)c(OCCO)c4)nc32)cc1`, the “DSF (ΔTm (° C.))” value at ACK1 [2] came out at 5.3 °C. Same read-out and setting: the value for `CC(C)S(=O)(=O)Nc1ccc(-n2ccc3cnc(Nc4ccc(N5CCN(C)CC5)c(F)c4)nc32)cc1` was 6.1 °C. `CN1CCN(c2cc(Cl)c(Nc3ncc4ccn(-c5cccc(N6CCCCS6(=O)=O)c5)c4n3)cc2F)CC1` showed an IC50 against ACK1 [1] of less than 250 nM. For `CN1CCN(c2cc(Cl)c(Nc3ncc4ccn(CC5CCOCC5)c4n3)cc2F)CC1`, on ACK1 [2], the “DSF (ΔTm (° C.))” value was found to be 6.4 °C. On ACK1 [1], this compound had an IC50 of less than 250 nM. For `Cc1cn(CC2CCOCC2)c2nc(Nc3ccc(N4CCN(C)CC4)c(OC(C)C)c3)ncc12`, the IC50 against ACK1 [1] was less than 250 nM.

Turning to `CN1CCN(c2cccc(Nc3ncc4ccn(CC5CCOCC5)c4n3)c2)CC1`, the IC50 on ACK1 [1] is less than 500 nM.

On to `COc1cc(N2CCN(C)CC2)c(F)cc1Nc1ncc2ccn(-c3cccc(N4CCCS4(=O)=O)c3)c2n1`, for which, on ACK1 [1], the concentration for half-maximal inhibition (IC50) is less than 250 nM.

For `CC(C)Oc1cc(Nc2ncc3ccn(CC4CCOCC4)c3n2)ccc1N1CCN(C)CC1`, the EC50 was found to be 3100 nM with UKE1 (UKE1, UKE1) and 3500 nM in the assay with MDA-MB-231 (setting [3]). This compound also came in with an IC50 at ACK1 [1] of less than 250 nM. Take `COc1cc(N2CCN(C)CC2)c(F)cc1Nc1ncc2ccn(-c3ccc(S(=O)(=O)NC(C)C)cc3)c2n1`: on ACK1 [2], the “DSF (ΔTm (° C.))” value worked out at 4.4 °C.

Consider `CN1CCN(c2ccc(Nc3ncc4ccn(CC5CCCO5)c4n3)cc2OC2CCC2)CC1` (centres unmarked), for which the EC50 with UKE1 (UKE1) amounted to 1500 nM; with UKE1 (UKE1, UKE1), 1720 nM; with MDA-MB-231 (setting [3]) it was 1500 nM; with MDA-MB-231 (MDA-MB-231), 1710 nM. The compound also returned an IC50 on ACK1 [1] of less than 250 nM. On to `COc1cc(Nc2ncc3c(C)cn(CC4CCOCC4)c3n2)ccc1-c1cnn(C)c1`, for which the IC50 at ACK1 [1] is less than 250 nM. The same measure, in the same setting: the value for `COc1cc(N2CCN(C)CC2)c(F)cc1Nc1ncc2ccn(CCc3ccccc3)c2n1` was less than 250 nM.

For the compound `CN1CCN(c2ccc(Nc3ncc4ccn(CC5CCOCC5)c4n3)cc2)CC1`, the IC50 at ACK1 [1] is less than 250 nM. Take `Cc1cc(N2CCN(C)CC2)c(F)cc1Nc1ncc2ccn(-c3ccc(S(=O)(=O)NC(C)C)cc3)c2n1`: the “DSF (ΔTm (° C.))” value at ACK1 [2] is 7.7 °C.

`CN1CCN(c2ccc(Nc3ncc4ccn(CC5CCOCC5)c4n3)cc2F)CC1` returned an IC50 against ACK1 [1] of less than 250 nM. For `Cc1cn(CC2CCCO2)c2nc(Nc3ccc(N4CCN(C)CC4)c(OC(C)C)c3)ncc12` (centres unmarked), the IC50 on ACK1 [1] is less than 250 nM. As to `COc1cc(N2CCN(C)CC2)c(F)cc1Nc1ncc2ccn(CCc3ccc(F)cc3)c2n1`, the IC50 against ACK1 [1] was less than 250 nM.

As for `Cc1cn(CC2CCCO2)c2nc(Nc3ccc(N4CCN(C)CC4)cc3)ncc12` (centres unmarked), the IC50 at ACK1 [1] was less than 250 nM. `COc1c(Nc2ncc3ccn(CC4CCOCC4)c3n2)cc(F)c(N2CCN(C)CC2)c1F` gave an IC50 against ACK1 [1] greater than 1000 nM. With `Cc1cc(N2CCN(C)CC2)c(F)cc1Nc1ncc2ccn(-c3cccc(N4CCCCS4(=O)=O)c3)c2n1`, on ACK1 [2], the “DSF (ΔTm (° C.))” value was 6.2 °C.

Consider `COc1cc(N2CCN(C)CC2)c(F)cc1Nc1ncc2ccn(CC3CCOCC3)c2n1`, for which the EC50 was greater than 10000 nM in the assay on UKE1 (UKE1, UKE1) and greater than 10000 nM with MDA-MB-231 (setting [3]). Further, at ACK1 [1], the IC50 is less than 250 nM.

Consider `CC(C)Oc1cc(Nc2ncc3ccn(-c4cccc(NS(=O)(=O)C(C)C)c4)c3n2)ccc1-c1cnn(C)c1`, for which, at ACK1 [1], the IC50 was less than 250 nM. For `CN1CCN(c2ccc(Nc3ncc4ccn(C[C@H]5CCCO5)c4n3)cc2F)CC1`, the IC50 at ACK1 [1] was less than 250 nM. On the same count and under the same terms, as for `Cn1cc(-c2ccc(Nc3ncc4ccn(CC5CCCO5)c4n3)cc2)cn1` (centres unmarked), the figure is less than 250 nM. For the compound `Cc1cn(CC2CCCO2)c2nc(Nc3ccc(-c4cnn(C)c4)c(OC(C)C)c3)ncc12` (centres unmarked), the “DSF (ΔTm (° C.))” value on ACK1 [2] stood at 2.1 °C. Besides, the IC50 against ACK1 [1] is less than 500 nM.

`CN1CCN(c2cccc(Nc3ncc4ccn(CC5CCCO5)c4n3)c2)CC1` (centres unmarked) gave an IC50 on ACK1 [1] of less than 250 nM.

On ACK1 [1], `CC(C)S(=O)(=O)Nc1cccc(-n2ccc3cnc(Nc4cc(F)c(N5CCN(C)CC5)cc4Cl)nc32)c1` came in with an IC50 of less than 250 nM. The compound `COc1ccccc1CCn1ccc2cnc(Nc3cc(F)c(N4CCN(C)CC4)cc3OC)nc21` yielded an IC50 against ACK1 [1] of less than 250 nM. The same measure, in the same setting: as for `CC(C)Oc1cc(Nc2ncc3c(F)cn(CC4CCCO4)c3n2)ccc1C1CCN(C)CC1` (centres unmarked), the figure is less than 250 nM. Regarding `CC(C)Oc1cc(Nc2ncc3ccn(CC4CCCO4)c3n2)ccc1N1CCN(C)CC1` (centres unmarked), the EC50 in the assay on UKE1 (UKE1, UKE1) is 1100 nM; in the assay with MDA-MB-231 (setting [3]) it was 2000 nM. The compound also returned an IC50 at ACK1 [1] of less than 250 nM. On to `Cc1cn(CC2CCOCC2)c2nc(Nc3ccc(-c4cnn(C)c4)c(OC(C)C)c3)ncc12`, for which, at ACK1 [1], the IC50 was less than 250 nM. As to `COc1cc(Nc2ncc3ccn(CC4CCCO4)c3n2)ccc1-c1cnn(C)c1` (centres unmarked), the IC50 against ACK1 [1] was less than 250 nM.

The compound `CN1CCN(c2cc(Cl)c(Nc3ncc4ccn(CC5CCCO5)c4n3)cc2F)CC1` (centres unmarked) registered an IC50 at ACK1 [1] of less than 250 nM.

As to `CN1CCN(c2ccc(Nc3ncc4ccn(CC5CCOCC5)c4n3)c(OC3CCC3)c2)CC1`, the IC50 against ACK1 [1] is less than 250 nM. Consider `COc1cc(N2CCN(C)CC2)c(F)cc1Nc1ncc2ccn(-c3cccc(N4CCCCS4(=O)=O)c3)c2n1`, for which the EC50 in the assay on UKE1 (UKE1, UKE1) was 1300 nM; in the assay with MDA-MB-231 (setting [3]), 3400 nM. At ACK1 [1], the IC50 was less than 250 nM. For `CC(C)Oc1cc(N2CCN(C)CC2)ccc1Nc1ncc2ccn(CCc3ccccc3)c2n1`, on ACK1 [1], the IC50 was less than 1000 nM. On the same count and under the same terms, as for `COc1cc(N2CCN(C)CC2)ccc1Nc1ncc2ccn(CC3CCCO3)c2n1` (centres unmarked), the figure is less than 250 nM. Turning to `COc1cc(N2CCN(C)CC2)ccc1Nc1ncc2ccn(-c3ccc(NS(=O)(=O)C(C)C)cc3)c2n1`, the “DSF (ΔTm (° C.))” value at ACK1 [2] came out at 6.5 °C.

For the compound `Cn1cc(-c2ccc(Nc3ncc4ccn(CC5CCOCC5)c4n3)cc2)cn1`, at ACK1 [1], the concentration for half-maximal inhibition (IC50) was less than 250 nM. Compound `COc1cc(N2CCN(C)CC2)c(F)cc1Nc1ncc2ccn(C[C@H]3CCCO3)c2n1` gave an IC50 against ACK1 [1] of less than 250 nM. For `Cc1cc(N2CCN(C)CC2)c(F)cc1Nc1ncc2ccn(-c3ccc(NS(=O)(=O)C(C)C)cc3)c2n1`, at ACK1 [2], the “DSF (ΔTm (° C.))” value was 7.3 °C. On the same count and under the same terms, as for `COc1cc(N2CCN(C)CC2)c(F)cc1Nc1ncc2ccn(-c3ccc(NS(=O)(=O)C(C)C)cc3)c2n1`, the figure is 9.3 °C. On to `COc1c(Nc2ncc3ccn(-c4ccc(NS(=O)(=O)C(C)C)cc4)c3n2)cc(F)c(N2CCN(C)CC2)c1F`, for which the IC50 against ACK1 [1] is less than 250 nM.

Turning to `COc1cc(N2CCN(C)CC2)c(F)cc1Nc1ncc2ccn(CC3CCCO3)c2n1` (centres unmarked), on ACK1 [1], the IC50 was less than 250 nM. As for `CC(C)COc1cc(Nc2ncc3ccn(CC4CCCO4)c3n2)ccc1N1CCN(C)CC1` (centres unmarked), on ACK1 [1], the IC50 was less than 250 nM.

`COc1cc(N2CCN(C)CC2)ccc1Nc1ncc2c(F)cn(CC3CCCO3)c2n1` (centres unmarked) registered an IC50 against ACK1 [1] of less than 250 nM. At ACK1 [1], `CN1CCN(c2ccc(Nc3ncc4ccn(CC5CCCO5)c4n3)c(OC3CCC3)c2)CC1` (centres unmarked) displayed an IC50 of less than 250 nM. The same measure, in the same setting: the value for `CC(C)Oc1cc(Nc2ncc3ccn(CCc4ccccc4)c3n2)ccc1-c1cnn(C)c1` was less than 750 nM; that for `CN1CCN(c2ccc(Nc3ncc4ccn(CC5CCCO5)c4n3)cc2)CC1` (centres unmarked) was less than 250 nM. As for `COc1cc(N2CCN(C)CC2)c(F)cc1Nc1ncc2ccn(CCc3ccccc3Cl)c2n1`, the IC50 at ACK1 [1] is less than 250 nM. For `CN1CCN(c2ccc(Nc3ncc4ccn(-c5ccc(N6CCCS6(=O)=O)cc5)c4n3)cc2F)CC1`, the “DSF (ΔTm (° C.))” value on ACK1 [2] amounted to 5.6 °C. As for `COc1cc(N2CCN(C)CC2)ccc1Nc1ncc2ccn(-c3ccc(S(=O)(=O)NC(C)C)cc3)c2n1`, the “DSF (ΔTm (° C.))” value at ACK1 [2] amounted to 8.1 °C.

Usually IC50 stands for the concentration that gives 50% inhibition. In general, EC50 refers to the concentration needed to bring the measured effect to its halfway point. Low readings indicate an effect from little substance, high ones a need for much substance.

Source of the values: patent US20240228502A1, “2-PHENYLAMINO PYRROLOPYRIMIDINES AS ACK1 INHIBITORS” (H. LEE MOFFITT CANCER CENTER AND RESEARCH INSTITUTE, INC., priority 2021, published 2024).
